Test results published in US20230148450A9, “BICYCLIC HETEROARYL COMPOUNDS AND USES THEREOF” (Revolution Medicines, Inc., priority 2019, published 2023).

Legend:
[1] = biological target: T1, SOS1 nucleotide exchange of KRAS (catalytic domain of SOS1, residues 564-1049; wild-type KRAS) (Homo sapiens, UniProt Q07889); assay: Mode of Action Assay: Inhibition of SOS1 Nucleotide Exchange Activity (TR-FRET); type: biochemical; settings: TR-FRET signal
T1 construct: tagless catalytic domain of SOS1 (residues 564-1049)
T1 sequence (Q07889 564-1049): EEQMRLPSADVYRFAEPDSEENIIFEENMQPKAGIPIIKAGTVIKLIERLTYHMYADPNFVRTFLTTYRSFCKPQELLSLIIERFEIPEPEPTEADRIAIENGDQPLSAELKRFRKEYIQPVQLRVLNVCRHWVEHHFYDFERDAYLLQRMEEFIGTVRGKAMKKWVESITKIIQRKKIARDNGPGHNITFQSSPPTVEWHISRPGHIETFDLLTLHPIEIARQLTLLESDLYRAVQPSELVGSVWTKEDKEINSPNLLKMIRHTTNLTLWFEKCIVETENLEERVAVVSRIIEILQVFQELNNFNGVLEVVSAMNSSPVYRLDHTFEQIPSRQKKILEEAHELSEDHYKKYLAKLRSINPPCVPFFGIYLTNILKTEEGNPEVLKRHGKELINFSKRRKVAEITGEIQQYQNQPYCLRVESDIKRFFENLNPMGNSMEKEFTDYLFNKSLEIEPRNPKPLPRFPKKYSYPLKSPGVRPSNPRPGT
Experimental: The purpose of this assay was to characterize the inhibitory activity of compounds on SOS1 nucleotide exchange of KRAS. Data was reported as IC50 values based on the TR-FRET signal.
Note—the following protocol describes a procedure for monitoring the inhibition of SOS1 nucleotide exchange activity of wild-type KRAS in response to a compound of the invention. Other KRAS mutants and RAS isoforms maybe employed.
In assay buffer containing 20 mM HEPES, pH 7.5, 150 mM NaCl, 5 mM MgCl2, 0.05% Tween-20, 0.1% BSA, 1 mM DTT, concentration series of test compounds were generated spanning 100 μM to 1.7 nM over eleven 3-fold serial dilutions in a 384-well assay plate at a volume of 20 μL. The purified tagless catalytic domain of SOS1 (residues 564-1049) was first diluted in assay buffer at a concentration of 100 nM, and then 20 μL of the SOS1 containing solution was directly dispensed into compound plates. The SOS1/compound mixture was incubated at room temperature with constant mixing on an orbital shaker for 20 minutes to allow the reaction to reach equilibrium. A KRAS mixture was prepared by diluting 66.7 nM avi-tagged KRAS (residue 1-169), 3.33 nM Streptavidin-Tb and 333 nM EDA-GTP-DY-647P1 in assay buffer. This mixture was prepared immediately before addition to the SOS1/compound mixture to prevent intrinsic nucleotide exchange. Then 5 μL of the pre-incubated SOS1/compound mixture and 7.5 μL of the KRAS mixture were added sequentially in a 384-well low volume black round bottom plate and incubated at room temperature with constant shaking for 30 minutes. Time-resolved fluorescence was measured on a PerkinElmer Envision plate reader. DMSO and 10 μM of compound (i) were used as negative and positive controls, respectively.
Three replicates were performed for each compound. Data were normalized by the following: (Positive control—Sample signal)/(Positive control—negative control)*100. The data were fit using a four-parameter logistic fit.

[2] = system: cellular pERK in PC-9 cells (EGFR Ex19Del); assay: Potency Assay: pERK; type: cell-based; settings: Homo sapiens; PC-9 cells (EGFR Ex19Del), 1 hour incubation, AlphaLISA p-ERK1/2; read-out: SOS1 pERK IC50
Source text: The purpose of this assay is to measure the ability of test compounds to inhibit SOS1 function in cells. SOS1 activates RAS proteins by catalyzing the conversion of […] to […] in response to receptor tyrosine kinase activation. Activation of RAS induces a sequence of cellular signaling events that results in increased phosphorylation of ERK at […] (pERK). The procedure described below measures the level of cellular pERK in response to test compounds in PC-9 cells (EGFR Ex[…]). PC-9 cells were grown and maintained using media and procedures recommended by the ATCC. On the day prior to compound addition, cells were plated in 384-well cell culture plates (40 μL/well) and grown overnight in a 37° C., 5% CO2 incubator. Test compounds were prepared in 10, 3-fold dilutions in DMSO, with a top concentration of 10 mM. On the day of the assay, 40 nL of test compound was added to each well of cell culture plate using an Echo550 liquid handler (LabCyte). Concentrations of test compound were tested in duplicate with highest test concentration being 10 μM. After compound addition, cells were incubated for 1 hour at 37° C., 5% CO2. Following incubation, culture medium was removed and cells were washed once with phosphate buffered saline. Cellular pERK level was determined using the AlphaLISA SureFire Ultra p-ERK1/2 Assay Kit (PerkinElmer). Cells were lysed in 25 μL lysis buffer, with shaking at 600 RPM at room temperature for 15 minutes. Lysate (10 μL) was transferred to a 384-well Opti-plate (PerkinElmer) and 5 μL acceptor mix was added. The plate was centrifuged at 1000 RPM for 1 minute, and incubated in the dark for 2 hours. Following this incubation, 5 μL of donor mix was added, the plate was sealed and centrifuged at 1000 RPM for 1 minute, and the mixture was incubated for 2 hours at room temperature. Signal was read on an Envision plate reader (PerkinElmer) using standard AlphaLISA settings. Analysis of raw data was carried out in Excel (Microsoft) and Prism (GraphPad). Signal was plotted vs. the decadal logarithm of compound concentration, and IC50 was determined by fitting a 4-parameter sigmoidal concentration response model.

[3] = biological target: T2, SOS1 catalytic domain (residues 564-1049) (Homo sapiens, UniProt Q07889); assay: Binding affinity to SOS1 using Surface Plasmon Resonance (SPR); settings: avi-tagged SOS1 catalytic domain immobilized on sensor chip; read-out: SOS1 SPR Equilibrium Kd
T2 construct: SOS1 catalytic domain (residues 564-1049) immobilized on a sensor chip
T2 sequence (Q07889 564-1049): T1 sequence (Q07889 564-1049)
Source text: Potency Assay: Measurement of the Binding Affinity of Compounds of the Invention to SOS! using Surface Plasmon Resonance (SPR)
The purpose of the SPR assay was to measure the direct binding of compounds to SOS1 catalytic domain (residues 564-1049) immobilized on a sensor chip. Data was reported as equilibrium dissociation constant (Kd) values.
Using a GE Biacore 8K SPR instrument, avi-tagged SOS1 catalytic domain protein was immobilized to a level of approximately 6000 response units (RU) on a streptavidin-coated SPR sensor chip in assay buffer containing 0.01 M HEPES, 0.15 M NaCl and 0.05% v/v Surfactant P20. In assay buffer containing 2% DMSO, concentration series of test compounds were generated spanning 5 μM to 4.9 nM over ten 2-fold dilutions. For each test compound, a separate 0 μM sample was generated for use during subsequent double reference subtraction. Serially for each test compound, individual dilution samples were flowed over the immobilized SOS1 protein at a flow rate of 50 μL/minute to monitor the association with SOS1. Dissociation of bound test compound from the SOS1 protein was immediately monitored by flowing assay buffer over the sensor surface and monitoring the decrease in binding signal back to the baseline level seen in the absence of compound. This was repeated for all compound dilutions in each series. The binding level response for each test compound concentration was noted immediately prior to the end of the association phase, and a secondary plot generated showing binding response level versus test compound concentration generated for each compound dilution series.

Compound | IC50 [1] [nM] | IC50 [2] [nM] | Kd [3] [nM]
C[C@@H](Nc1ncnc2cc(C(=O)N3CCOCC3)sc12)c1cc(N)cc(C(F)(F)F)c1 [Example 31, [4-[[(1R)-1-[3-amino-5-(trifluoromethyl)phenyl]ethyl]amino]thieno[3,2-d]pyrimidin-6-yl]-morpholino-methanone] | > 1000 | > 1000 | ≤ 400
Cc1nc(N[C@H](C)c2cc(N)cc(C(F)(F)F)c2)c2cc(C(=O)N3CC(O)C3)cn2n1 [Example 33, [4-[[(1R)-1-[3-amino-5-(trifluoromethyl)phenyl]ethyl]amino]-2-methyl-pyrrolo[2,1-f][1,2,4]triazin-6-yl]-(3-hydroxyazetidin-1-yl)methanone] | < 1000 | < 1000 | > 400
Cc1nc(N[C@H](C)c2cc(N)cc(C(F)(F)F)c2)c2cc(C3(O)CC(O)C3)cn2n1 (stereo partly drawn) [Example 35, (R)-1-(4-((1-(3-amino-5-(trifluoromethyl)phenyl)ethyl)amino)-2-methylpyrrolo[2,1-f][1,2,4]triazin-6-yl)cyclobutane-1,3-diol] | > 1000 | > 1000 | ≤ 400
Cc1nc(N[C@H](C)c2cc(N)cc(C(F)(F)F)c2)c2cc(C(=O)N3CCN(C)CC3)cn2n1 [Example 36, (R)-(4-((1-(3-amino-5-(trifluoromethyl)phenyl)ethyl)amino)-2-methylpyrrolo[2,1-f][1,2,4]triazin-6-yl)(4-methylpiperazin-1-yl)methanone] | < 1000 | < 1000 | ≤ 400
Cc1nc(N[C@H](C)c2cc(N)cc(C(F)(F)F)c2)c2cc(C(=O)N3CCN(C)CC3)n(C)c2n1 [Example 37, [4-[[(1R)-1-[3-amino-5-(trifluoromethyl)phenyl]ethyl]amino]-2,7-dimethyl-pyrrolo[2,3-d]pyrimidin-6-yl]-(4-methylpiperazin-1-yl)methanone] | > 1000 | > 1000 | > 400
C[C@@H](Nc1nc(Cl)nc2c1cc(C1=CCNCC1)n2C)c1cc(N)cc(C(F)(F)F)c1 [Example 39, N-[(1R)-1-[3-amino-5-(trifluoromethyl)phenyl]ethyl]-2-chloro-7-methyl-6-(1,2,3,6-tetrahydropyridin-4-yl)pyrrolo[2,3-d]pyrimidin-4-amine] | > 1000 | > 1000 | ≤ 400
CNCc1ccccc1-c1ccc(C(C)Nc2nc(C)nn3cc(C4=CCNCC4)cc23)s1 (stereo not drawn) [Example 40, 2-methyl-N-[1-[5-[2-(methylaminomethyl)phenyl]-2-thienyl]ethyl]-6-(1,2,3,6-tetrahydropyridin-4-yl)pyrrolo[2,1-f][1,2,4]triazin-4-amine] | > 1000 | > 1000 | ≤ 400
Cc1nc(N[C@H](C)c2cc(N)cc(C(F)(F)F)c2)c2cc(C(=O)N3CCOCC3)cn2n1 [Example 41, [4-[[(1R)-1-[3-amino-5-(trifluoromethyl)phenyl]ethyl]amino]-2-methyl-pyrrolo[2,1-f][1,2,4]triazin-6-yl]morpholino-methanone] | < 1000 | < 1000 | ≤ 400
C[C@@H](Nc1ncnc2sc(C(=O)N3CCOCC3)nc12)c1cc(N)cc(C(F)(F)F)c1 [Example 42, [7-[[(1R)-1-[3-amino-5-(trifluoromethyl)phenyl]ethyl]amino]thiazolo[5,4-d]pyrimidin-2-yl]-morpholino-methanone] | < 1000 | < 1000 | ≤ 400
C[C@@H](Nc1ncnn2cc(N3CCOCC3)cc12)c1cc(N)cc(C(F)(F)F)c1 [Example 47, N-[(1R)-1-[3-amino-5-(trifluoromethyl)phenyl]ethyl]-6-morpholino-pyrrolo[2,1-f][1,2,4]triazin-4-amine] | > 1000 | > 1000 | > 400
C[C@@H](Nc1ncnn2cc(C(=O)N3CCOCC3)cc12)c1cc(N)cc(C(F)(F)F)c1 [Example 50, N-[(1R)-1-[3-amino-5-(trifluoromethyl)phenyl]ethyl]-6-(morpholine-4-carbonyl)pyrrolo[2,1-f][1,2,4]triazin-4-amine] | < 1000 | < 1000 | > 400
C[C@@H](Nc1nc(Cl)nc2cc(C(=O)N3CCOCC3)[nH]c12)c1cc(N)cc(C(F)(F)F)c1 [Example 51, N-[(1R)-1-[3-amino-5-(trifluoromethyl)phenyl]ethyl]-2-chloro-6-(morpholine-4-carbonyl)-5H-pyrrolo[3,2-d]pyrimidin-4-amine] | > 1000 | > 1000 | > 400
C[C@@H](Nc1nccn2nc(C3=CCNCC3)nc12)c1cc(N)cc(C(F)(F)F)c1 [Example 53, N-[(1R)-1-[3-amino-5-(trifluoromethyl)phenyl]ethyl]-2-(1,2,3,6-tetrahydropyridin-4-yl)-[1,2,4]triazolo[1,5-a]pyrazin-8-amine] | > 1000 | > 1000 | ≤ 400
C[C@@H](Nc1ncnc2[nH]c(C(=O)N3CCOCC3)nc12)c1cc(N)cc(C(F)(F)F)c1 [Example 57, N-[(1R)-1-[3-amino-5-(trifluoromethyl)phenyl]ethyl]-8-(morpholine-4-carbonyl)-9H-purin-6-amine] | < 1000 | < 1000 | ≤ 400
